Columns and labels:
BRCA1-deficient cells = settings: cited from earlier work
BOGA cells [1] = assay: Western blot of protein levels in BOGA cells after treatment; type: cell-based
Procedure: MCF7 cells were a gift from J. Weber (Washington University, St. Louis, Mo.). Cells were maintained in DMEM (Cellgro) supplemented with 10% fetal bovine serum (Sigma-Aldrich), antibiotics, and antimycotics. Cells transduced with short hairpin RNAs (shRNAs) were maintained in selection media containing 0.5 mg/mL Geneticin G418 (Gibco) or 2 μg/mL puromycin (Invitrogen).
Cells were lysed in RIPA buffer (50 mM Tris-HCl pH 8.0, 150 mM NaCl, 1% NP-40, 0.5% sodium deoxycholate, 0.5% SDS) supplemented with PMSF, protease inhibitors, and DTT. Following sonication, 120 μg of total cell lysate was loaded into 4%-15% Tris-Gly gradient gels. Protein detection was carried out with the following antibodies: BRCA1 (sc-6954, Santa Cruz), 53BP1 (NB100-304, Novus Biologicals), cathepsin L (sc-6498, Santa Cruz), p107 (sc-318, Santa Cruz), RAD51 (sc-8349, Santa Cruz), RPA (NA18, Calbiochem), and β-Tubulin (T8328, Sigma-Aldrich).
(§1) Aliquots of 1 nmol calcitriol were resuspended in 1 mL of bovine growth serum (BGS) and diluted in DMEM with antibiotics and antimycotics to a final concentration of 10% BGS. BGS was used as the vehicle in control media. Treatment was carried out for 24 hours unless indicated otherwise.
(§2) Cells were incubated with the broad spectrum cathepsin inhibitor E-64 (E3132, Sigma-Aldrich) at a concentration of 10 μM. Water served as the vehicle in control media. Treatment was carried out for 24 hours unless indicated otherwise.

BOGA cells [2] = assay: Analysis of aberrant chromosomes in metaphase spreads (genomic instability); type: cell-based
Procedure: as §1, §2
Cells were treated with the PARPi EB-47 (E8405, Sigma-Aldrich) at a concentration of 1.2 μg/mL for 48 hours. PARPi was dissolved in water, which was used as vehicle control.
(§3) For determining the extent of genomic instability, cells were irradiated with 2 Gy and analysis of metaphase spreads was performed 24 hours post-irradiation. For assaying formation of IRIF, cells were irradiated with 8 Gy and fixed and processed for immunofluorescence 1 hour, 3 hours, or 6 hours post-irradiation as indicated. For comet assays, cells were irradiated with 8 Gy.
Following all treatments, cells were arrested in mitosis by treatment with colcemid for 4 hours and metaphase spreads prepared by hypotonic swelling in 0.56% KCl, followed by fixation in 3:1 methanol:acetic acid. Cell suspensions were dropped onto slides and stained for 25 minutes in Wright-Giemsa Stain (9380-32, Ricca Chemical Company) and then washed in water. Slides were allowed to dry and were mounted using Eukitt Mounting Reagent and analyzed on an Olympus BX51 light microscope.

BOGA cells [3] = assay: 53BP1 IRIF formation by immunofluorescence; type: cell-based; settings: BOGA cells (sh BRCA1), vitamin D 10−7 M from 24 hours prior to 8 Gy, fixed 6 hours post-IR
Procedure: (§4) Aliquots of 1 nmol calcitriol were resuspended in 1 mL of bovine growth serum (BGS) and diluted in DMEM with antibiotics and antimycotics to a final concentration of 10% BGS. BGS was used as the vehicle in control media. Treatment was carried out for 24 hours unless indicated otherwise. For determining the extent of genomic instability, cells were irradiated with 2 Gy and analysis of metaphase spreads was performed 24 hours post-irradiation. For assaying formation of IRIF, cells were irradiated with 8 Gy and fixed and processed for immunofluorescence 1 hour, 3 hours, or 6 hours post-irradiation as indicated. For comet assays, cells were irradiated with 8 Gy. Cells were plated on coverslips, irradiated with 8 Gy if indicated, and collected at the varying time intervals. Cells were fixed with 3.7% formaldehyde and 0.2% TritonX-100 in PBS for 10 minutes at RT, followed by 3 washes in PBS. After blocking in 1% BSA and 0.1% Triton X-100 in PBS for 1 hour at 37° C., cells were incubated with 53BP1 (NB100-304, Novus Biologicals) or RAD51 (sc-8349, Santa Cruz) antibodies for 1 hour at 37° C. Three washes in PBS were carried out followed by incubation for 1 hour at 37° C. with appropriate secondary antibodies. Final washes in PBS were carried out and cells were counterstained with DAPI and coverslips were mounted on slides using Vectashield (Vector Labs). […]

BOGA cells [4] = assay: RAD51 IRIF formation by immunofluorescence; type: cell-based; settings: vitamin D, 8 Gy
Procedure: as §4

BOGA cells [5] = assay: Neutral comet assay, kinetics of DNA DSBs repair; type: cell-based; settings: vitamin D 10−7 M 24 h preirradiation, 8 Gy
Procedure: as §3
Neutral comet assays were performed using CometSlide assay kits (Trevigen). […] Cells were embedded in agarose, lysed, and subjected to neutral single cell gel electrophoresis. The agarose was dehydrated and cells were stained with ethidium bromide to visualize under a fluorescence microscope. Olive comet moment was determined using the program CometScore Version 1.5 (TriTek). Olive moment was calculated by multiplying the percentage of DNA in the tail by the displacement between the means of the head and tail distributions as described (Olive et al., 1990). A total of 25-30 comets were analyzed per sample in each experiment.

[6] = BRCA1-deficient (BOGA) cells, E64 10 μM

## CNCc1ccc(-c2[nH]c3cc(F)cc4c3c2CCNC4=O)cc1 [AG014699]
BRCA1-deficient cells
  Clonogenic survival of BRCA1-deficient cells compared to cells expressing BRCA1: clear reduction

## CC(C)C[C@H](NC(=O)[C@H]1O[C@@H]1C(=O)O)C(=O)NCCCCN=C(N)N [E64]
BOGA cells [1]; [6]
  53BP1 protein levels (western blot): increased levels
  CTSL levels (western blot): without major changes
BOGA cells [2]; E64 24 h prior to 2 Gy
  Genomic instability after IR: marked increase

## O=C(c1cc(Cc2n[nH]c(=O)c3ccccc23)ccc1F)N1CCCNCC1 [KU0058948]
BRCA1-deficient cells
  Clonogenic survival of BRCA1-deficient cells compared to cells expressing BRCA1: clear reduction

## Nc1ncnc2c1ncn2[C@@H]1O[C@H](C(=O)N2CCN(CC(=O)Nc3cccc4c3CNC4=O)CC2)[C@@H](O)[C@H]1O [EB-47]
BOGA cells [2]; PARPi EB-47 1.2 μg/mL 48 h alone
  Genomic instability (metaphases with chromosomal aberrations): does not result in profound genomic instability

## O=C1CCC(=O)N1c1cc(Cc2n[nH]c(=O)c3ccccc23)ccc1F [KU0058684]
BRCA1-deficient cells
  Clonogenic survival of BRCA1-deficient cells compared to cells expressing BRCA1: clear reduction

## C=C1/C(=C\C=C2/CCC[C@]3(C)[C@@H]([C@H](C)CCCC(C)(C)O)CC[C@@H]23)C[C@@H](O)C[C@@H]1O [vitamin D, 1α,25-dihydroxyvitamin D3]
BOGA cells [1]; BOGA cells, vitamin D 10−7 M
  53BP1 protein levels (western blot): stabilizes
  p107 levels (control for inhibition of CTSL activity): stabilization
BOGA cells [3]
  % cells with 53BP1 foci: 84%
BOGA cells [3]; listed as vit D
  % cells with 53BP1 foci: 84%
BOGA cells [2]; vitamin D 10−7 M 24 h prior to and with PARPi EB-47 1.2 μg/mL 48 h
  Extent of chromosomal aberrations in response to PARPi: increase
BOGA cells [2]; vitamin D 24 h prior to 2 Gy, 24 h post-IR
  Percentage of metaphases with aberrant chromosomes after IR: significantly increased
BOGA cells [2]; vitamin D alone, mock irradiation
  Genomic instability (metaphases with chromosomal aberrations), single agent: modest increase
BOGA cells [4]; 1 hour post-IR
  % cells positive for RAD51 IRIF: 35%
BOGA cells [4]; 3 h post-IR
  Extent of RAD51 IRIF at later times post-irradiation: did not affect
BOGA cells [5]
  Kinetics of DNA DSBs repair (fast phase), Olive comet moment: rescues
